Results published in patent publication US20230139171A1 (SITA Information Networking Computing UK Limited, priority 2019, published 2023).

Key:
Assay type in all cases: cell-based
human TLR9 = target: T1, human TLR9 (Homo sapiens, UniProt Q9NR96); experiment: TLR9 inhibition reporter assay (HEK-Blue cells, SEAP reporter, ODN2006 stimulation); details: HEK-Blue cells overexpressing human TLR9, SEAP reporter, ODN2006 5 nM
T1 construct: host or cells: HEK-Blue cells
T1 sequence (Q9NR96 26-1032): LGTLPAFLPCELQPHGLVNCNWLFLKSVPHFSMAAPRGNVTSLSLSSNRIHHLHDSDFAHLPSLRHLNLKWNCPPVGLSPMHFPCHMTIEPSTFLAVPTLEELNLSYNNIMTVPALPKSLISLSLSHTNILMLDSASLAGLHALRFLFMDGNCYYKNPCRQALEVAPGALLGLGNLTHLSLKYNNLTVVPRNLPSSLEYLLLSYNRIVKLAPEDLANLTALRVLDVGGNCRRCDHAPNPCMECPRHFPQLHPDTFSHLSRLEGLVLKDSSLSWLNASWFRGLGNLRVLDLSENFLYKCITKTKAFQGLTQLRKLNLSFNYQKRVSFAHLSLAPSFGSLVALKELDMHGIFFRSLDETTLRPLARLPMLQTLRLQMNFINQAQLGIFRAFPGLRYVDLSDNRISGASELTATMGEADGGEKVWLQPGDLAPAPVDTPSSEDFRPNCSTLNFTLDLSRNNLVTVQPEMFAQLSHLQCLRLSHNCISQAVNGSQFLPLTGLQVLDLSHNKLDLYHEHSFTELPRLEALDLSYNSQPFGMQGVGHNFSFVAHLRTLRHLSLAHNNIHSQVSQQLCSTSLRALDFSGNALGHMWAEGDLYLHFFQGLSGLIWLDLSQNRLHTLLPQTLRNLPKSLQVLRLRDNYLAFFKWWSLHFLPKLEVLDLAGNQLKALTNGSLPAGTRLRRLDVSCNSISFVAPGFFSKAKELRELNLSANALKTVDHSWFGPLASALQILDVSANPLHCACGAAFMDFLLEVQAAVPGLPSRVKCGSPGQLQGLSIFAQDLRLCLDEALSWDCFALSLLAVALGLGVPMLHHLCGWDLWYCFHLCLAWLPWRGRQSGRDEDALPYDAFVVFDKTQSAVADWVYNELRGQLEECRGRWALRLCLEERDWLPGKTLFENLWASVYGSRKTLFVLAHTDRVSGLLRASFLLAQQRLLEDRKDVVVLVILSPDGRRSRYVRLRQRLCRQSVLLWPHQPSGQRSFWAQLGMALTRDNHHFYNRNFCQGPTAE
Method in brief: (§1)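 Agonists used: gardiquimod 7.5 μM (TLR7), R848 15.9 μM (TLR8), ODN2006 5 nM (TLR9), added after 30 min room-temperature compound pre-treatment (0.05 nM–50 μM) of receptor-overexpressing HEK-Blue cells. SEAP reporter (NF-κB/AP-1 driven) read after 22 h at 37 °C; inhibition scaled between agonist+DMSO and reference-inhibitor wells.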

human TLR8 = target: T2, human TLR8 (Homo sapiens, UniProt Q9NR97); experiment: TLR8 inhibition reporter assay (HEK-Blue cells, SEAP reporter, R848 stimulation); details: HEK-Blue cells overexpressing human TLR8, SEAP reporter, R848 15.9 μM; read-out: TLR8 IC50
T2 construct: host or cells: HEK-Blue cells
T2 sequence (Q9NR97 27-1041): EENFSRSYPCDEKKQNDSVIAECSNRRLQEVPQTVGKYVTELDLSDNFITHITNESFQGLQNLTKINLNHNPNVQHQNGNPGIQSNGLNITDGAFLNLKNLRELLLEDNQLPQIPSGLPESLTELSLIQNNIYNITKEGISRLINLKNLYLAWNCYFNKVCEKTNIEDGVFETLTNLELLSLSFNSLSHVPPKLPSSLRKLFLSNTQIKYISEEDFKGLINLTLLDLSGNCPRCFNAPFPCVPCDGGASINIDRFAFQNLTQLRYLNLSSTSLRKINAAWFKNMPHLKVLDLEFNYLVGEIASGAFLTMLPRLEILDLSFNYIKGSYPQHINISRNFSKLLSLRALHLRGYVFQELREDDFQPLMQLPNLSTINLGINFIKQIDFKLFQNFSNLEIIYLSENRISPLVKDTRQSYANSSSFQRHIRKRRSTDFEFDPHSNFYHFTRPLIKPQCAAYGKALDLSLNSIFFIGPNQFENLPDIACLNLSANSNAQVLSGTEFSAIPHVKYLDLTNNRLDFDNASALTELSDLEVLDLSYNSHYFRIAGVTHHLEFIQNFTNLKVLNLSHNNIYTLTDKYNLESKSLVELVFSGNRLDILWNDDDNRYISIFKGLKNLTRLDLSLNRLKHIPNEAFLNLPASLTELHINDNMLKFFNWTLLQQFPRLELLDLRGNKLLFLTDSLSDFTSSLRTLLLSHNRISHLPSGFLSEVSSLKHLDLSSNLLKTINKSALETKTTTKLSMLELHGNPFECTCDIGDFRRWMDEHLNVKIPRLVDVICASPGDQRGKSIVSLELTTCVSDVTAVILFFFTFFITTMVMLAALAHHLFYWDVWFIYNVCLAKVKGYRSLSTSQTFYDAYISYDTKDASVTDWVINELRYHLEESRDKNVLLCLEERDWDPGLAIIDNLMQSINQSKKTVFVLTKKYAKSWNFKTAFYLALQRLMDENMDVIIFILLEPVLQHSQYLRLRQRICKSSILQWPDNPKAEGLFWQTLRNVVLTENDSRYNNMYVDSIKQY
Method in brief: as §1

human TLR7 = target: T3, human TLR7 (Homo sapiens, UniProt Q9NYK1); experiment: TLR7 inhibition reporter assay (HEK-Blue cells, SEAP reporter, gardiquimod stimulation); details: HEK-Blue cells overexpressing human TLR7, SEAP reporter, gardiquimod 7.5 μM; read-out: TLR7 IC50
T3 construct: host or cells: HEK-Blue cells
T3 sequence (Q9NYK1 27-1049): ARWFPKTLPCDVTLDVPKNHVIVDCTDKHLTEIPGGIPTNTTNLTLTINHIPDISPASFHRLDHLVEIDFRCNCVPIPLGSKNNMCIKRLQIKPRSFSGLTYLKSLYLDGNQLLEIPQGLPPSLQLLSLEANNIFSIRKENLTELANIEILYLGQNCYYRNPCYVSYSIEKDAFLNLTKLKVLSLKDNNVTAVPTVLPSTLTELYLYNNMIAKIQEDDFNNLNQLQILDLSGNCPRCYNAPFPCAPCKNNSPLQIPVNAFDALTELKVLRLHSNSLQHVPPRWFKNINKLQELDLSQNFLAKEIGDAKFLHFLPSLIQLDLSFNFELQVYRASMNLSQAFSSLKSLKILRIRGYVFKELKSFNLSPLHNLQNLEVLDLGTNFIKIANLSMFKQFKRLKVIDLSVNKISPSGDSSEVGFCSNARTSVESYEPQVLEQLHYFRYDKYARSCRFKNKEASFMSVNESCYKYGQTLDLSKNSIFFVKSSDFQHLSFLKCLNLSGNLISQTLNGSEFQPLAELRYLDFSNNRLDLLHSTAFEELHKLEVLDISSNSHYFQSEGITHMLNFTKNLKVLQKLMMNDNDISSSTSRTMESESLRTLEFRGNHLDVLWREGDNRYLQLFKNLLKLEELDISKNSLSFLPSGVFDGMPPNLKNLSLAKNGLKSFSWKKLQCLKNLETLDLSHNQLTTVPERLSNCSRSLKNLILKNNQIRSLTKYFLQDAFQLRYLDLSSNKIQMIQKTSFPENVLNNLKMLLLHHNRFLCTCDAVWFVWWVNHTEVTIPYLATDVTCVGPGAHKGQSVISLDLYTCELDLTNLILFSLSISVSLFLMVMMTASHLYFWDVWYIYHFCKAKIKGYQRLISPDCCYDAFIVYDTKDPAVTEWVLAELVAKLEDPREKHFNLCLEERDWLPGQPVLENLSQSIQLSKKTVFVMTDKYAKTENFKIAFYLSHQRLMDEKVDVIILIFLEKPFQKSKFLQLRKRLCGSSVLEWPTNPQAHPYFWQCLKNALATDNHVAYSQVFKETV
Method in brief: as §1

IC50 (human TLR9) [µM] | IC50 (human TLR8) [nM] | IC50 (human TLR7) [nM] | SMILES
42.4 | 7.61 | 8.27 | Cc1c(-c2[nH]c3sc(N4C[C@@H](C)N(CCS(C)(=O)=O)C[C@@H]4C)nc3c2C(C)C)cn2ncnc2c1C [Example 337, 2-((2S,5R)-2,5-dimethyl-4-(2-(methylsulfonyl)ethyl)piperazin-1-yl)-5-(7,8-dimethyl-[1,2,4]triazolo[1,5-a]pyridin-6-yl)-6-isopropyl-4H-pyrrolo[3,2-d]thiazole]
45.6 | 31.1 | 10.1 | Cc1c(-c2[nH]c3sc(N4C[C@@H](C)N(CC(N)=O)C[C@@H]4C)nc3c2C(C)C)cn2ncnc2c1C [Example 338, 2-((2R,5S)-4-(5-(7,8-dimethyl-[1,2,4]triazolo[1,5-a]pyridin-6-yl)-6-isopropyl-4H-pyrrolo[3,2-d]thiazol-2-yl)-2,5-dimethylpiperazin-1-yl)acetamide]
36.6 | 3.86 | 19.9 | Cc1c(-c2[nH]c3sc(N4C[C@@H](C)N(CC(C)(C)O)C[C@@H]4C)nc3c2C(C)C)cn2ncnc2c1C [Example 339, 1-((2R,5S)-4-(5-(7,8-dimethyl-[1,2,4]triazolo[1,5-a]pyridin-6-yl)-6-isopropyl-4H-pyrrolo[3,2-d]thiazol-2-yl)-2,5-dimethylpiperazin-1-yl)-2-methylpropan-2-ol]
5.22 | 3.38 | 4.64 | CNCC(=O)N1C[C@H](C)N(c2nc3c(C(C)C)c(-c4cn5ncnc5c(C)c4C)[nH]c3s2)C[C@H]1C [Example 340, 1-((2R,5S)-4-(5-(7,8-dimethyl-[1,2,4]triazolo[1,5-a]pyridin-6-yl)-6-isopropyl-4H-pyrrolo[3,2-d]thiazol-2-yl)-2,5-dimethylpiperazin-1-yl)-2-(methylamino)ethan-1-one]
16.5 | 9 | 7.86 | Cc1c(-c2[nH]c3sc(N4C[C@@H](C)N(C(=O)CN(C)C)C[C@@H]4C)nc3c2C(C)C)cn2ncnc2c1C [Example 341, 1-((2R,5S)-4-(5-(7,8-dimethyl-[1,2,4]triazolo[1,5-a]pyridin-6-yl)-6-isopropyl-4H-pyrrolo[3,2-d]thiazol-2-yl)-2,5-dimethylpiperazin-1-yl)-2-(dimethylamino) ethan-1-one]
19.2 | 7.94 | 6.3 | Cc1c(-c2[nH]c3sc(N4CCN(C(=O)CN(C)C)C[C@@H]4C)nc3c2C(C)C)cn2ncnc2c1C [Example 346, (S)-1-(4-(5-(7,8-dimethyl-[1,2,4]triazolo[1,5-a]pyridin-6-yl)-6-isopropyl-4H-pyrrolo[3,2-d]thiazol-2-yl)-3-methylpiperazin-1-yl)-2-(dimethylamino)ethan-1-one]
21.7 | 0.12 | 8.11 | Cc1c(-c2[nH]c3sc(N4CCN(C5CCOCC5)C[C@@H]4C)nc3c2C(C)C)cn2ncnc2c1C [Example 350, (S)-5-(7,8-dimethyl-[1,2,4]triazolo[1,5-a]pyridin-6-yl)-6-isopropyl-2-(2-methyl-4-(tetrahydro-2H-pyran-4-yl)piperazin-1-yl)-4H-pyrrolo[3,2-d]thiazole]
19.8 | 0.98 | 8.23 | Cc1c(-c2[nH]c3sc(N4CCN(C(C)C)C[C@@H]4C)nc3c2C(C)C)cn2ncnc2c1C [Example 351, (S)-5-(7,8-dimethyl-[1,2,4]triazolo[1,5-a]pyridin-6-yl)-6-isopropyl-2-(4-isopropyl-2-methylpiperazin-1-yl)-4H-pyrrolo[3,2-d]thiazole]
24.5 | 1.09 | 14.4 | Cc1c(-c2[nH]c3sc(N4CCN(CC5CC5)C[C@@H]4C)nc3c2C(C)C)cn2ncnc2c1C [Example 352, (S)-2-(4-(cyclopropylmethyl)-2-methylpiperazin-1-yl)-5-(7,8-dimethyl-[1,2,4]triazolo[1,5-a]pyridin-6-yl)-6-isopropyl-4H-pyrrolo[3,2-d]thiazole]
6.26 | > 3130 | > 3130 | Cc1cc(-c2[nH]c3sc(N4CCN(C(C)C)C[C@H]4C)nc3c2C(C)C)cn2ncnc12 [Example 366, (R)-6-isopropyl-2-(4-isopropyl-2-methylpiperazin-1-yl)-5-(8-methyl-[1,2,4]triazolo[1,5-a]pyridin-6-yl)-4H-pyrrolo[3,2-d] thiazole]
6.44 | 1.38 | 12.4 | Cc1c(-c2[nH]c3sc(C(=O)NCCN4CCCC4)nc3c2C(C)C)cn2ncnc2c1C [Example 370, 5-(7,8-dimethyl-[1,2,4]triazolo[1,5-a]pyridin-6-yl)-6-isopropyl-N-(2-(pyrrolidin-1-yl)ethyl)-4H-pyrrolo[3,2-d]thiazole-2-carboxamide]
8.88 | 2.49 | 10.7 | Cc1c(-c2[nH]c3sc(C(=O)NCCN(C)C)nc3c2C(C)C)cn2ncnc2c1C [Example 372, 5-(7,8-dimethyl-[1,2,4]triazolo[1,5-a]pyridin-6-yl)-N-(2-(dimethylamino)ethyl)-6-isopropyl-4H-pyrrolo[3,2-d]thiazole-2-carboxamide]
